Data: BindingDB's records for doi:10.7270/Q2TX3CTT (Broad Institute, 2010)
Where a name gives a salt, the structure may show the parent alone.

Target: Glycogen synthase kinase-3 beta (Homo sapiens, UniProt P49841)
Assay: GSK3beta kinase inhibitor potency, dose response, biochemical, luminescence, cell-free homogeneous, retest (AID 434954)

Chain of Glycogen synthase kinase-3 beta (P49841 whole entry): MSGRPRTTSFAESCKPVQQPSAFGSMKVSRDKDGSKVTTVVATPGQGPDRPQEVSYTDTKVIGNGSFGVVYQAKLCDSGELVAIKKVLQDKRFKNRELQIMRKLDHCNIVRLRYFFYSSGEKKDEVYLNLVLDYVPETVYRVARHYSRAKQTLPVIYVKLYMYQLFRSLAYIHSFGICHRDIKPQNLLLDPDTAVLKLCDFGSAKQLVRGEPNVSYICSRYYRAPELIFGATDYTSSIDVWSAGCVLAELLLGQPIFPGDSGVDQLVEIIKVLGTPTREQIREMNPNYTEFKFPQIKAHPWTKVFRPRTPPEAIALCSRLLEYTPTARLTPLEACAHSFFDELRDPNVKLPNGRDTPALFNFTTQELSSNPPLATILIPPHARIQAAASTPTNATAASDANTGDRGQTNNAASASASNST

SMILES	EC50 [µM]
O=c1c(O)c(-c2ccc(O)c(O)c2)oc2cc(O)cc(O)c12 [2-(3,4-dihydroxyphenyl)-3,5,7-trihydroxy-chromone;hydrate]	10.1
O=c1cc(-c2ccc(O)c(O)c2)oc2cc(O)cc(O)c12 [2-(3,4-dihydroxyphenyl)-5,7-dihydroxy-4H-chromen-4-one]	3.81
CC(C)=CCc1c(O)ccc2c1OC(c1ccc(O)c(O)c1)CC2=O (centres undefined) [2-(3,4-dihydroxyphenyl)-7-hydroxy-8-(3-methylbut-2-enyl)-2,3-dihydrochromen-4-one]	4.58
COc1ccc(CC(=O)Nc2nc(-c3ccccc3)c(C(C)=O)s2)cc1OC [2-(3,4-dimethoxyphenyl)-N-(5-ethanoyl-4-phenyl-1,3-thiazol-2-yl)ethanamide]	7.48
Cn1c(SCC(=O)Nc2ccccc2)nc2ccccc2c1=O [2-(3-Methyl-4-oxo-3,4-dihydro-quinazolin-2-ylsulfanyl)-N-phenyl-acetamide]	> 300
Cc1c(Br)c([N+](=O)[O-])nn1CC(=O)Nc1c(C)n(C)n(-c2ccccc2)c1=O [2-(4-Bromo-5-methyl-3-nitro-pyrazol-1-yl)-N-(1,5-dimethyl-3-oxo-2-phenyl-2,3-dihydro-1H-pyrazol-4-yl)-acetamide]	> 300
c1ccc(-n2cnnc2SCc2cn3cccnc3n2)cc1 [2-(4-Phenyl-4H-[1,2,4]triazol-3-ylsulfanylmethyl)-imidazo[1,2-a]pyrimidine]	> 300
CCCCc1cc(=O)oc2cc(C)cc(OCC(=O)O)c12 [2-(4-butyl-7-methyl-2-oxochromen-5-yl)oxyacetic acid]	> 300
O=C(Cc1ccc(Cl)cc1)Nc1ncc([N+](=O)[O-])s1 [2-(4-chlorophenyl)-N-(5-nitro-1,3-thiazol-2-yl)ethanamide]	30.4
CCc1nn(CC(=O)NCCC(C)C)c(=O)c2cc3c(OC)cccc3n12 [2-(4-ethyl-9-methoxy-1-oxo-[1,2,4]triazino[4,5-a]indol-2-yl)-N-(3-methylbutyl)acetamide]	> 300
CCN1CCN(c2nc(N)c([N+](=O)[O-])c(Nc3cccc(C)c3)n2)CC1 [2-(4-ethylpiperazin-1-yl)-4-N-(3-methylphenyl)-5-nitropyrimidine-4,6-diamine]	> 300
Fc1ccc(-c2nnc(SCc3cccnc3)o2)cc1 [2-(4-fluorophenyl)-5-(pyridin-3-ylmethylsulfanyl)-1,3,4-oxadiazole]	75.5
O=C(CSc1ccc(F)cc1)Nc1ccc(N2CCOCC2)cc1 [2-(4-fluorophenyl)sulfanyl-N-(4-morpholin-4-ylphenyl)ethanamide]	> 300
CC(C)=CCc1c(O)c(CC=C(C)C)c2c(c1O)C(=O)CC(c1ccc(O)cc1)O2 (centres undefined) [2-(4-hydroxyphenyl)-6,8-bis(3-methylbut-2-enyl)-5,7-bis(oxidanyl)-2,3-dihydrochromen-4-one]	> 300
CC(C)=CCc1c(O)cc2c(c1O)C(=O)CC(c1ccc(O)cc1)O2 (centres undefined) [2-(4-hydroxyphenyl)-6-(3-methylbut-2-enyl)-5,7-bis(oxidanyl)-2,3-dihydrochromen-4-one]	> 300
Cc1nn(CC(=O)NCCCN2CCCCC2)c(=O)c2cccn12 [2-(4-methyl-1-oxidanylidene-pyrrolo[1,2-d][1,2,4]triazin-2-yl)-N-(3-piperidin-1-ylpropyl)ethanamide]	> 300
Cc1ccc(OCC(=O)NN=Cc2ccccc2)c([N+](=O)[O-])c1 [2-(4-methyl-2-nitro-phenoxy)-N-[(phenylmethylidene)amino]ethanamide]	> 300

SMILES	EC50 [µM]
Cc1ccc(C=NNC(=O)COc2ccc(C)cc2[N+](=O)[O-])cc1 [2-(4-methyl-2-nitrophenoxy)-N'-[(1Z)-(4-methylphenyl)methylene]acetohydrazide]	> 300
Cc1ccc(OCC(=O)NN=C2SCC(=O)N2Cc2ccccc2)cc1 [2-(4-methylphenoxy)-N-[[4-oxo-3-(phenylmethyl)-2-thiazolidinylidene]amino]acetamide]	> 300
c1c2c(cc3sc(N4CCOCC4)nc13)OCCO2 [2-(4-morpholinyl)-6,7-dihydro-[1,4]dioxino[2,3-f][1,3]benzothiazole]	> 300
CC1(C)CC(CC(=O)NC(=S)Nc2ccc([N+](=O)[O-])cc2)C(=O)O1 (centres undefined) [2-(5,5-dimethyl-2-oxotetrahydro-3-furanyl)-N-{[(4-nitrophenyl)amino]carbonothioyl}acetamide]	26.7
O=C(CSc1nnc(-c2ccco2)n1Cc1ccco1)N1CCOCC1 [2-(5-Furan-2-yl-4-furan-2-ylmethyl-4H-[1,2,4]triazol-3-ylsulfanyl)-1-morpholin-4-yl-ethanone]	> 300
COc1ccc(CCNC(=O)C(C(=O)c2ccccc2)n2cc(Cl)ccc2=O)cc1OC (centres undefined) [2-(5-chloro-2-oxopyridin-1-yl)-N-[2-(3,4-dimethoxyphenyl)ethyl]-3-oxo-3-phenylpropanamide]	> 300
Cc1cccc(Nc2nc(N)c([N+](=O)[O-])c(NCCO)n2)c1 [2-(6-Amino-5-nitro-2-m-tolylamino-pyrimidin-4-ylamino)-ethanol]	5.91
Nc1nc(Nc2ccccc2)nc(NCCO)c1[N+](=O)[O-] [2-(6-Amino-5-nitro-2-phenylamino-pyrimidin-4-ylamino)-ethanol]	5.77
COc1ccc2c(CC(=O)Nc3ncc(C)s3)coc2c1 [2-(6-methoxy-1-benzofuran-3-yl)-N-(5-methyl-1,3-thiazol-2-yl)ethanamide]	> 300
COc1cccc2c1cc1c(=O)n(CC(=O)NCCCN3CCCCC3)nc(C)n12 [2-(9-methoxy-4-methyl-1-oxo-[1,2,4]triazino[4,5-a]indol-2-yl)-N-[3-(1-piperidinyl)propyl]acetamide]	> 300
O=C(CS(=O)(=O)c1ccccc1)Nc1ncc([N+](=O)[O-])s1 [2-(benzenesulfonyl)-N-(5-nitro-1,3-thiazol-2-yl)acetamide]	> 300
COC(=O)c1ccc2nc(NC(=O)C3CC3)sc2c1 [2-(cyclopropanecarbonylamino)-1,3-benzothiazole-6-carboxylic acid methyl ester]	> 300
CCSc1nc2sc3c(c2c(=O)n1-c1ccccc1)CCN(C)C3 [2-Ethylsulfanyl-7-methyl-3-phenyl-5,6,7,8-tetrahydro-3H-9-thia-1,3,7-triaza-fluoren-4-one]	> 300
Cc1oc2ccc(OC(=O)c3cccs3)cc2c1C(=O)OC(C)C [2-Methyl-5-(thiophene-2-carbonyloxy)-benzofuran-3-carboxylic acid isopropyl ester]	> 300
Nc1nc(Nc2cccc(F)c2)nc(N2CCOCC2)c1[N+](=O)[O-] [2-N-(3-fluorophenyl)-6-morpholin-4-yl-5-nitropyrimidine-2,4-diamine]	> 300
Cc1cccc(Nc2nc(NCc3ccco3)nc(N)c2[N+](=O)[O-])c1 [2-N-(furan-2-ylmethyl)-4-N-(3-methylphenyl)-5-nitropyrimidine-2,4,6-triamine]	64.4

Further lines, results first:

EC50 [µM]	SMILES
7.2	COc1ccc(C=c2sc(=CC(=O)C(C)(C)C)[nH]c2=O)cc1O [2-(3,3-dimethyl-2-oxidanylidene-butylidene)-5-[(4-methoxy-3-oxidanyl-phenyl)methylidene]-1,3-thiazolidin-4-one]
> 300	COc1ccc2c(c1)-c1c(ssc1=S)C(C)(C)N2C(=O)CSC1=NCCS1 [2-(4,5-dihydrothiazol-2-ylthio)-1-(8-methoxy-4,4-dimethyl-1-sulfanylidene-5-dithiolo[3,4-c]quinolinyl)ethanone]
> 300	Cn1c(SCc2ccccc2C#N)nnc1-c1ccncc1 [2-(4-Methyl-5-pyridin-4-yl-4H-[1,2,4]triazol-3-ylsulfanylmethyl)-benzonitrile]
> 300	CCc1nn(CC(=O)NCCN2CCOCC2)c(=O)c2cc3c(OC)cccc3n12 [2-(4-ethyl-9-methoxy-1-oxidanylidene-[1,2,4]triazino[4,5-a]indol-2-yl)-N-(2-morpholin-4-ylethyl)ethanamide]
7.18	Cc1ccc(OCC(=O)N/N=C/c2ccc(O)cc2)c([N+](=O)[O-])c1 [2-(4-methyl-2-nitro-phenoxy)-N'-[(4-oxidanylidenecyclohexa-2,5-dien-1-ylidene)methyl]ethanehydrazide]
28.8	Cc1ccc(CC(=O)Nc2ncc([N+](=O)[O-])s2)cc1 [2-(4-methylphenyl)-N-(5-nitro-1,3-thiazol-2-yl)acetamide]
> 300	Cc1ccc(S(=O)(=O)CC(=O)Nc2ncc([N+](=O)[O-])s2)cc1 [2-(4-methylphenyl)sulfonyl-N-(5-nitro-1,3-thiazol-2-yl)acetamide]
17.9	O=c1cc(-c2ccncc2)oc2ccccc12 [2-(4-pyridyl)chromone]
> 300	CC(C)(C)c1ccc(OCC(=O)NCCN2CCCC2)cc1 [2-(4-tert-butylphenoxy)-N-(2-pyrrolidin-1-ylethyl)ethanamide;hydrochloride]
> 300	Cc1ccccc1NC(=O)CSc1nc(N)c(C#N)c(-c2cccs2)c1C#N [2-(6-amino-3,5-dicyano-4-thiophen-2-ylpyridin-2-yl)sulfanyl-N-(2-methylphenyl)acetamide]
> 300	COc1cccc2c1cc1c(=O)n(CC(=O)NCc3ccccn3)nc(C)n12 [2-(9-methoxy-4-methyl-1-oxo-[1,2,4]triazino[4,5-a]indol-2-yl)-N-(pyridin-2-ylmethyl)acetamide]
> 300	CC(=O)N1CCc2c(sc(NC(=O)C3CCCCC3)c2C(N)=O)C1 [2-(cyclohexylcarbonylamino)-6-ethanoyl-5,7-dihydro-4H-thieno[2,3-c]pyridine-3-carboxamide]
29.1	c1ccc2c(CSc3nnc(-c4ccncc4)o3)cccc2c1 [2-(naphthalen-1-ylmethylsulfanyl)-5-pyridin-4-yl-1,3,4-oxadiazole]
> 300	O=C1CCCC2=Nc3nc(SCc4ccccc4)nn3C(c3cccs3)C12 (centres undefined) [2-(phenylmethylthio)-9-thiophen-2-yl-5,6,7,9-tetrahydro-1H-[1,2,4]triazolo[5,1-b]quinazolin-8-one]
> 300	CCc1cccc(C)c1NC(=O)CSc1nnc(CCCOc2ccc(Cl)cc2Cl)n1C [2-({5-[3-(2,4-dichlorophenoxy)propyl]-4-methyl-4H-1,2,4-triazol-3-yl}thio)-N-(2-ethyl-6-methylphenyl)acetamide]
> 300	Nc1ccccc1Nc1cc(-c2ccccc2)[nH]n1 [2-N-(5-phenyl-1H-pyrazol-3-yl)benzene-1,2-diamine]
